# Source: patent US9630941B2 (priority 2008, dated 2017)
# Key:
# [1] = Porcine buccal tissue homogenate stability; assay type: in vitro ADME; settings: protein concentration 2 mg/ml
# Procedure: (§1) b. Porcine Buccal Tissue Homogenate Stability
# (§2) Protein Concentration 2 mg/ml
# [2] = Bioreversion: plasma stability, porcine plasma; assay type: in vitro ADME
# [3] = Control (IPBS) stability for the buccal homogenate study; assay type: physicochemical
# Procedure: as §1, §2
# [4] = Aqueous solubility, pH dependent; assay type: physicochemical
# [5] = Thermal stability, 120° C. for 10 min; assay type: physicochemical; settings: for CBN content of the sample after heating / Drug remaining / THC content of the sample after heating / Drug remaining (%): 120° C. for 10 min; for Drug remaining (%): % of initial; for CBN content of the sample, initial / Initial, μg (drug itself) / THC content of the sample, initial: before heating
# Procedure: C. Thermal Stability—120° C. for 10 min.
# [6] = Chemical stability pH dependent at 25° C.; assay type: physicochemical
# Procedure: B. Chemical Stability pH Dependent at 25° C.
SMILES,K [1],K [2],T1/2 [2],K [3],Aqueous Solubility ([4]; pH 1.2),Aqueous Solubility ([4]; pH 2),Aqueous Solubility ([4]; pH 3),Aqueous Solubility ([4]; pH 4),Drug loading (%) [5],CBN content of the sample after heating [5],Drug remaining [5],THC content of the sample after heating [5],Drug remaining (%) [5],"CBN content of the sample, initial [5]","Initial, μg (drug itself) [5]","THC content of the sample, initial [5]","First order rate constant ([6]; Buffer pH 5.0, 25° C.)","First order rate constant ([6]; Buffer pH 7.0, 25° C.)","First order rate constant ([6]; Buffer pH 9.0, 25° C.)","First order rate constant ([6]; Water, 25° C.)",other results
"CCCCCc1cc(OC(=O)CNC)c2c(c1)OC(C)(C)[C@@H]1CCC(C)=C[C@@H]21 [THC-Sarcosinate (7), Δ^9-THC-sarcosinate]",37.36 ± 3.87 ×10^−3 min^−1,63.16 ± 10.44 ×10^−2 min^−1,1.11 ± 0.18 min,23.47 ± 1.60 ×10^−3 min^−1,101.38 ± 29.22 µg/mL,151.75 ± 9.33 µg/mL,96.52 ± 2.84 µg/mL,50.74 ± 1.98 µg/mL,79.82 ± 0.85%,33.83 ± 0.97 µg,841.38 ± 40.18 µg,54.53 ± 3.35 µg,(70.30 ± 4.10) %,40.05 ± 3.45 µg,1197.24 ± 12.69 µg,26.68 ± 3.80 µg,38.35 ± 4.32 ×10^−3 h^−1,605.61 ± 125.14 ×10^−3 h^−1,1209.25 ± 203.05 ×10^−3 h^−1,25.45 ± 21.99 ×10^−3 h^−1,"Aqueous Solubility ([4]; pH 1.2, listed as THC-Sarcosine): 263.16 ± 75.84 µM; Aqueous Solubility ([4]; pH 2, listed as THC-Sarcosine): 393.89 ± 24.21 µM; Aqueous Solubility ([4]; pH 3, listed as THC-Sarcosine): 250.54 ± 7.38 µM; Aqueous Solubility ([4]; pH 4, listed as THC-Sarcosine): 131.70 ± 5.13 µM; Aqueous Solubility ([4]; pH 5): 7.14 ± 0.72 µg/mL; Aqueous Solubility ([4]; pH 5, listed as THC-Sarcosine): 18.54 ± 1.87 µM; Aqueous Solubility ([4]; pH 6): 0.53 ± 0.07 µg/mL; Aqueous Solubility ([4]; pH 6, listed as THC-Sarcosine): 1.38 ± 0.18 µM"
"CCCCCc1cc(OC(=O)[C@@H](N)Cc2c[nH]c3ccccc23)c2c(c1)OC(C)(C)[C@@H]1CCC(C)=C[C@@H]21 [THC-Tryptophanate (10), Δ^9-THC-tryptophinate]",9.06 ± 1.26 ×10^−3 min^−1,48.55 ± 5.90 ×10^−2 min^−1,1.44 ± 0.17 min,0.77 ± 0.02 ×10^−3 min^−1,,,,,89.84 ± 4.53%,16.63 ± 2.63 µg,1216.70 ± 32.88 µg,96.10 ± 16.64 µg,(90.47 ± 7.00) %,25.59 ± 2.26 µg,1347.57 ± 67.93 µg,97.38 ± 6.39 µg,0.00829 h⁻¹,0.03803 h⁻¹,,,T1/2 [1]: 77.27 ± 10.73 min
CCCCCc1cc(OC(=O)C(N)Cc2c[nH]c3ccccc23)c2c(c1)OC(C)(C)C1CCC(C)=CC21.O=C(O)CC(=O)O (stereo not drawn) [THC-Tryptophanate Malonate],,,,,1.58 ± 0.19 µg/mL,4.65 ± 0.31 µg/mL,,,,,,,,,,,,,,,"Aqueous Solubility ([4]; H20): 13.27 ± 14.72 µg/mL; Aqueous Solubility ([4]; Water): 8.02 ± 8.90 µM; Aqueous Solubility ([4]; pH 1.2, listed as THC-Tryptophan Malonate): 0.95 ± 0.12 µM; Aqueous Solubility ([4]; pH 2, listed as THC-Tryptophan Malonate): 2.81 ± 0.19 µM"
"CCCCCc1cc(OC(=O)CCCc2ccc(NC(=O)CCC(=O)O)cc2)c2c(c1)OC(C)(C)[C@@H]1CCC(C)=C[C@@H]21 [THC-APB-HS (14), THC-4(4-aminophenyl)butyrate-hemisuccinate]",,Stable,Stable,,,,,,96.66 ± 2.18%,38.36 ± 9.70 µg,1518.84 ± 34.38 µg,0 µg,(104.81 ± 4.74) %,47.63 ± 9.92 µg,1449.90 ± 32.76 µg,0 µg,0.00368 h⁻¹,Stable,Stable,0.00481 h⁻¹,
"CCCCCc1cc(OC(=O)[C@@H](N)CCC(N)=O)c2c(c1)OC(C)(C)[C@@H]1CCC(C)=C[C@@H]21 [THC-Glutaminate (9), Δ^9-THC-glutaminate]",40.41 ± 3.30 ×10^−3 min^−1,53.41 ± 5.84 ×10^−2 min^−1,1.31 ± 0.14 min,26.30 ± 0.14 ×10^−3 min^−1,59.55 ± 0.02 µg/mL,162.82 ± 14.39 µg/mL,46.29 ± 1.13 µg/mL,22.24 ± 2.20 µg/mL,63.41 ± 2.57%,,721.31 ± 73.76 µg,,(75.75 ± 4.69) %,,951.08 ± 38.55 µg,,70.23 ± 0.92 ×10^−3 h^−1,153.42 ± 4.26 ×10^−3 h^−1,756.35 ± 106.61 ×10^−3 h^−1,32.72 ± 15.19 ×10^−3 h^−1,"T1/2 [1]: 17.21 ± 1.40 min; Aqueous Solubility ([4]; H20): 1.61 ± 0.76 µg/mL; Aqueous Solubility ([4]; Water): 3.63 ± 1.72 µM; Aqueous Solubility ([4]; pH 1.2, listed as THC-Glutamine): 134.25 ± 0.05 µM; Aqueous Solubility ([4]; pH 2, listed as THC-Glutamine): 367.06 ± 32.44 µM; Aqueous Solubility ([4]; pH 3, listed as THC-Glutamine): 104.36 ± 2.55 µM; Aqueous Solubility ([4]; pH 4, listed as THC-Glutamine): 50.13 ± 4.97 µM; Aqueous Solubility ([4]; pH 5): 5.76 ± 0.02 µg/mL; Aqueous Solubility ([4]; pH 5, listed as THC-Glutamine): 12.99 ± 0.04 µM; Aqueous Solubility ([4]; pH 6): 2.15 ± 0.32 µg/mL; Aqueous Solubility ([4]; pH 6, listed as THC-Glutamine): 4.84 ± 0.72 µM; Aqueous Solubility ([4]; pH 7): 0.52 ± 0.06 µg/mL; Aqueous Solubility ([4]; pH 7, listed as THC-Glutamine): 1.18 ± 0.14 µM; Aqueous Solubility ([4]; pH 8): 0.34 ± 0.33 µg/mL; Aqueous Solubility ([4]; pH 8, listed as THC-Glutamine): 0.76 ± 0.74 µM; Aqueous Solubility ([4]; pH 9): 0.16 ± 0.02 µg/mL; Aqueous Solubility ([4]; pH 9, listed as THC-Glutamine): 0.35 ± 0.04 µM"
"CCCCCc1cc(OC(=O)[C@@H](N)Cc2ccc(O)cc2)c2c(c1)OC(C)(C)[C@@H]1CCC(C)=C[C@@H]21 [THC-Tyrosinate (11), Δ^9-THC-tyrosinate]",21.52 ± 0.55 ×10^−3 min^−1,93.53 ± 8.79 ×10^−2 min^−1,0.74 ± 0.07 min,1.11 ± 0.04 ×10^−3 min^−1,41.92 ± 2.14 µg/mL,15.76 ± 0.66 µg/mL,5.28 ± 1.78 µg/mL,0.73 ± 0.03 µg/mL,81.51 ± 4.28%,24.42 ± 0.21 µg,1138.93 ± 60.67 µg,123.75 ± 2.69 µg,(93.15 ± 0.06) %,35.68 ± 1.16 µg,1222.61 ± 64.25 µg,92.95 ± 3.08 µg,6.32 ± 3.14 ×10^−3 h^−1,25.02 ± 0.88 ×10^−3 h^−1,53.88 ± 11.36 ×10^−3 h^−1,9.40 ± 0.88 ×10^−3 h^−1,"T1/2 [1]: 32.21 ± 0.81 min; Aqueous Solubility ([4]; pH 1.2, listed as THC-Tyrosine): 87.76 ± 4.48 µM; Aqueous Solubility ([4]; pH 2, listed as THC-Tyrosine): 33.00 ± 1.38 µM; Aqueous Solubility ([4]; pH 3, listed as THC-Tyrosine): 11.06 ± 3.73 µM; Aqueous Solubility ([4]; pH 4, listed as THC-Tyrosine): 1.52 ± 0.06 µM"
CCCCCc1cc(OC(=O)[C@@H](N)C(C)C)c2c(c1)OC(C)(C)C1CCC(C)=CC21.O=C(O)CC(=O)O (stereo partly drawn) [THC-Valinate malonate],,,,,53.63 ± 1.09 µg/mL,118.42 ± 5.07 µg/mL,50.03 ± 1.80 µg/mL,13.92 ± 1.56 µg/mL,,,,,,,,,,,,,"Aqueous Solubility ([4]; H20): 1.21 ± 0.61 µg/mL; Aqueous Solubility ([4]; Water): 2.33 ± 1.19 µM; Aqueous Solubility ([4]; pH 1.2, listed as THC-Valine malonate): 103.61 ± 2.11 µM; Aqueous Solubility ([4]; pH 2, listed as THC-Valine malonate): 228.78 ± 9.79 µM; Aqueous Solubility ([4]; pH 3, listed as THC-Valine malonate): 96.65 ± 3.49 µM; Aqueous Solubility ([4]; pH 4, listed as THC-Valine malonate): 26.88 ± 3.01 µM; Aqueous Solubility ([4]; pH 5): 1.22 ± 0.00 µg/mL; Aqueous Solubility ([4]; pH 5, listed as THC-Valine malonate): 2.36 ± 0.01 µM; Aqueous Solubility ([4]; pH 6): 0.13 ± 0.02 µg/mL; Aqueous Solubility ([4]; pH 6, listed as THC-Valine malonate): 0.25 ± 0.04 µM; Aqueous Solubility ([4]; pH 7): 0.05 ± 0.02 µg/mL; Aqueous Solubility ([4]; pH 7, listed as THC-Valine malonate): 0.11 ± 0.03 µM; Aqueous Solubility ([4]; pH 8): 0.06 ± 0.00 µg/mL; Aqueous Solubility ([4]; pH 8, listed as THC-Valine malonate): 0.12 ± 0.01 µM; Aqueous Solubility ([4]; pH 9): 0.14 ± 0.02 µg/mL; Aqueous Solubility ([4]; pH 9, listed as THC-Valine malonate): 0.27 ± 0.03 µM"
